Data from US8841291B2, “Selective hydroxamic acid based MMP-12 and MMP-13 inhibitors” (Novartis AG, priority 2008, dated 2014).
pIC50: −log10 of the molar value. Where two headings read alike, the source gives them in different places.

What was measured:
Gelatinase (MMP-2) = target: T1, Gelatinase (MMP-2) (Homo sapiens, UniProt P08253); test: Gelatinase (MMP-2) inhibitory activity, fluorogenic peptide substrate assay; type: biochemical
T1 sequence (P08253 110-660): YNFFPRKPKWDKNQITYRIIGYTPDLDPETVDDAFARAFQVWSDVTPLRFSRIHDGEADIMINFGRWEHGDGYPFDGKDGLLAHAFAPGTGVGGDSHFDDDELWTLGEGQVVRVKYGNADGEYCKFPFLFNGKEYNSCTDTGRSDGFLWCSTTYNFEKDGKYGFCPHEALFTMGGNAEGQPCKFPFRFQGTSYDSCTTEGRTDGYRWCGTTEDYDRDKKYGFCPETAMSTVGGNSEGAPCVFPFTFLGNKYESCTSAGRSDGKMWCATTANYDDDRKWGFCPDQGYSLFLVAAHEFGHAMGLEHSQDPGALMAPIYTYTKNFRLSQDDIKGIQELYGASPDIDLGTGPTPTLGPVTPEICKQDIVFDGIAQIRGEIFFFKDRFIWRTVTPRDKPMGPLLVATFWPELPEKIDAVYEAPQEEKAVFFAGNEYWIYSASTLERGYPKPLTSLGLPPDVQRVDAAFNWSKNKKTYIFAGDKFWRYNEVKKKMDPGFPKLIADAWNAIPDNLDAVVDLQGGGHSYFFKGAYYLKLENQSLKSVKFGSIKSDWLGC
Procedure: (§1) Stock solutions of inhibitors (0.03 mM-3 mM) are also prepared in DMSO. The inhibitors are diluted into the assay solutions, and the controls use an equal volume of DMSO so that the final DMSO concentration from the inhibitor and substrate dilutions in all assays is 1.0%. Assays are performed in an assay buffer (100 mM sodium chloride, 10 μM ZnCl. Sub 2, 10 mM CaCl2, 100 mM Tris-Cl pH7.5, 0.05% Brij-35), containing 1.0% DMSO from the substrate and inhibitor additions. The substrate concentration used in the assays is 5 μM. The assays are carried out at 20-25° C. […] The reaction mixtures are added in duplicate into appropriate wells of a 384-well assay plate. The reaction mixtures are preincubated with the inhibitors for 60 minutes The reactions are started by the addition of MMP substrate, and the fluorescence intensity changes are measured after 60 minutes The apparent enzyme activity in the presence of an inhibitor is then compared with that in the absence of any inhibitor to determine the inhibition effect of the inhibitor.

Collagenase-3 (MMP-13) = Collagenase-3 (MMP-13) (Homo sapiens, UniProt P45452); test: Collagenase-3 (MMP-13) inhibitory activity, fluorogenic peptide substrate assay; type: biochemical
Procedure: as §1
Collagenase-3 (MMP-13) inhibitory activity is determined as described above. Recombinant pro-collagenase-3 is activated with 1 mM APMA, and stored in the assay buffer after extensive dialysis in the assay buffer.

[1] = substrate 5 μM, 60 min preincubation, 20-25° C., read-out: MMP2 IC50
[2] = recombinant pro-collagenase-3 activated with 1 mM APMA, read-out: MMP13 IC50

| Compound | pIC50 (Gelatinase (MMP-2); [1]) | pIC50 (Collagenase-3 (MMP-13); [2]) | pIC50 (Gelatinase (MMP-2); read-out: IC50 (Gelatinase (MMP-2) inhibitory activity)) | pIC50 (Collagenase-3 (MMP-13); read-out: IC50 (Collagenase-3 (MMP-13) inhibitory activity)) |
| --- | --- | --- | --- | --- |
| CC1(C)SCCN(S(=O)(=O)c2ccc3ccccc3c2)[C@H]1C(=O)NO [Example 90] | 7.29 | > 9.52 |  |  |
| CC(C)CCN(C1(C(=O)NO)CCCC1)S(=O)(=O)c1ccc2ccccc2c1 [Example 70, 1-[(3-Methyl-butyl)-(naphthalene-2-sulfonyl)-amino]-cyclopentanecarboxylic acid hydroxyamide] | 6.03 | 6.67 |  |  |
| CC(C)(C)OC(=O)N1CCC([C@@H](NS(=O)(=O)c2ccc3ccccc3c2)C(=O)NO)CC1 [Example 74, 4-[Hydroxycarbamoyl-(naphthalene-2-sulfonylamino)-methyl]-piperidine-1-carboxylic acid tert-butyl ester] | 9.40 | 9.40 |  |  |
| CC(C)(C)[C@@H](NS(=O)(=O)c1ccc2ncccc2c1)C(=O)NO [Example 92, (R)—N-Hydroxy-3,3-dimethyl-2-(quinoline-6-sulfonylamino)-butyramide] | 6.12 | 6.65 |  |  |
| O=C(NO)[C@H]1C2CCC(CC2)N1S(=O)(=O)c1ccc2ccccc2c1 [Example 91, (R)-2-(Naphthalene-2-sulfonyl)-2-aza-bicyclo[2.2.2]octane-3-carboxylic acid hydroxyamide] | 4.65 | 5.16 |  |  |
| CSCC[C@H](C(=O)NO)N(CCC(C)C)S(=O)(=O)c1ccc2ccccc2c1 [Example 20, (R)—N-Hydroxy-2-[(3-methyl-butyl)-(naphthalene-2-sulfonyl)-amino]-4-methylsulfanyl-butyramide] | 7.92 | 9.52 |  |  |
| CC1=CC[C@H](C(=O)NO)N(S(=O)(=O)c2ccc3ccccc3c2)C1 [Example 60, (R)-5-Methyl-1-(naphthalene-2-sulfonyl)-1,2,3,6-tetrahydro-pyridine-2-carboxylic acid hydroxyamide] | 7.90 | 9.05 |  |  |
| O=C(NO)[C@H]1CCCCCN1S(=O)(=O)c1ccc2ccccc2c1 [Example 33, (R)-1-(Naphthalene-2-sulfonyl)-azepane-2-carboxylic acid hydroxyamide] | 7.13 | 8.06 |  |  |
| O=C(NO)[C@H]1CC=CCN1S(=O)(=O)c1ccc(N2CCOCC2)nc1 [Example 96, (R)-1-(6-Morpholin-4-yl-pyridine-3-sulfonyl)-1,2,3,6-tetrahydro-pyridine-2-carboxylic acid hydroxyamide] |  | 6.49 |  |  |
| CC(C)CCN(C(C)(C)C(=O)NO)S(=O)(=O)c1ccc2ccccc2c1 [Example 65, N-Hydroxy-2-methyl-2-[(3-methyl-butyl)-(naphthalene-2-sulfonyl)-amino]-propionamide] | 5.54 | 5.65 |  |  |
| O=C(NO)[C@H]1CC=CCN1S(=O)(=O)c1ccc2ccccc2c1 [Example 26, (R)-1-(Naphthalene-2-sulfonyl)-1,2,3,6-tetrahydro-pyridine-2-carboxylic acid hydroxyamide] | 7.73 | 8.77 |  |  |
| CCOc1ccc2ccc(S(=O)(=O)N(Cc3ccccc3)[C@@H](C(=O)NO)C(C)C)cc2c1 [Example 27, 2-[Benzyl-(7-ethoxy-naphthalene-2-sulfonyl)-amino]-N-hydroxy-3-methyl-butyramide] | 5.36 | 6.27 |  |  |
| CC(C)CCNc1ccc2ccc(S(=O)(=O)N(CCC(C)C)[C@@H](C(=O)NO)C(C)C)cc2c1 [Example 57, N-Hydroxy-3-methyl-2-{(3-methyl-butyl)-[7-(3-methyl-butylamino)-naphthalene-2-sulfonyl]-amino}-butyramide] | < 5.52 | 5.80 |  |  |
| CC(C)[C@H](C(=O)NO)N(CCOc1ccccc1Cl)S(=O)(=O)c1ccc2ccccc2c1 [Example 64, N-(2-(2-chlorophenoxy)ethyl)-N-(naphthalene-2-sulfonyl)-D-valine hydroxamic acid] | 6.05 | 7.79 |  |  |
| CC(=O)Nc1ccc2cc(S(=O)(=O)N(CCC(C)C)[C@@H](C(=O)NO)C(C)C)ccc2c1 [Example 55, 2-[(6-Acetylamino-naphthalene-2-sulfonyl)-(3-methyl-butyl)-amino]-N-hydroxy-3-methyl-butyramide] | 7.09 | 8.51 |  |  |
| CN1CCOc2cc(S(=O)(=O)N3CC=CC[C@@H]3C(=O)NO)ccc21 [Example 94, (R)-1-(4-Methyl-3,4-dihydro-2H-benzo[1,4]oxazine-7-sulfonyl)-1,2,3,6-tetrahydro-pyridine-2-carboxylic acid hydroxyamide] |  | 7.43 |  |  |

| Compound | pIC50 (Gelatinase (MMP-2); [1]) | pIC50 (Collagenase-3 (MMP-13); [2]) | pIC50 (Gelatinase (MMP-2); read-out: IC50 (Gelatinase (MMP-2) inhibitory activity)) | pIC50 (Collagenase-3 (MMP-13); read-out: IC50 (Collagenase-3 (MMP-13) inhibitory activity)) |
| --- | --- | --- | --- | --- |
| CS(=O)(=O)CCC(NS(=O)(=O)c1ccc2ccccc2c1)C(=O)NO (centres unmarked) [Example 18, N-Hydroxy-4-methanesulfonyl-2-(naphthalene-2-sulfonylamino)-butyramide] | 6.80 | 6.82 |  |  |
| O=C(NO)[C@H]1CCCCN1S(=O)(=O)c1ccc2ccccc2c1 [Example 9, (R)-1-(Naphthalene-2-sulfonyl)-piperidine-2-carboxylic acid hydroxyamide] | 7.31 | 8.31 |  |  |
| CC(C)CCOc1ccc2ccc(S(=O)(=O)N(CCC(C)C)[C@@H](C(=O)NO)C(C)C)cc2c1 [Example 86, (R)—N-Hydroxy-3-methyl-2-[[7-(3-methyl-butoxy)-naphthalene-2-sulfonyl]-(3-methyl-butyl)-amino]-butyramide] | < 5.00 | 5.49 |  |  |
| O=C(NO)[C@H]1CC=CCCN1S(=O)(=O)c1ccc2ccccc2c1 [Example 88, (R)-1-(Naphthalene-2-sulfonyl)-2,3,6,7-tetrahydro-1H-azepine-2-carboxylic acid hydroxyamide] | 7.20 | 7.79 |  |  |
| CC(C)CCN([C@@H](C(=O)NO)C1CCN(C(=O)OC(C)(C)C)CC1)S(=O)(=O)c1ccc2ccccc2c1 [Example 82, 4-{Hydroxycarbamoyl-[(3-methyl-butyl)-(naphthalene-2-sulfonyl)-amino]-methyl}-piperidine-1-carboxylic acid tert-butyl ester] | > 9.52 | > 9.52 |  |  |
| O=C(NO)C1(NS(=O)(=O)c2ccc3ccccc3c2)CCCCC1 [Example 19, 1-(Naphthalene-2-sulfonylamino)-cyclohexanecarboxylic acid hydroxyamide] | 6.35 | 6.14 |  |  |
| CC(C)CCN([C@@H](C(=O)NO)C(C)C)S(=O)(=O)c1ccc2ccccc2c1Cl [Example 80, 2-[(1-Chloro-naphthalene-2-sulfonyl)-(3-methyl-butyl)-amino]-N-hydroxy-3-methyl-butyramide] | 6.11 | 6.93 | 7.26 | ~6.95 |
| Cc1ccc(C)c(OCCN([C@@H](C(=O)NO)C(C)C)S(=O)(=O)c2ccc3ccccc3c2)c1C [Example 75, N-(2-(2,3,6-trimethylphenoxy)ethyl)-N-(naphthalene-2-sulfonyl)-D-valine hydroxamic acid] | 5.51 | 7.17 |  |  |
| CC(C)(C)[C@@H](NS(=O)(=O)c1ccc2ccccc2c1)C(=O)NO [Example 93, (R)—N-Hydroxy-3,3-dimethyl-2-(naphthalene-2-sulfonylamino)-butyramide] | 6.22 | 7.05 |  |  |
| COc1c(S(=O)(=O)N2CC=CC[C@@H]2C(=O)NO)ccc2ccccc12 [Example 78, (R)-1-(1-Methoxy-naphthalene-2-sulfonyl)-1,2,3,6-tetrahydro-pyridine-2-carboxylic acid hydroxyamide] | 7.70 | 8.68 |  |  |
| CC(C)CCN([C@@H](C(=O)NO)C(C)C)S(=O)(=O)c1ccc2cc(N)ccc2c1 [Example 51, 2-[(6-Amino-naphthalene-2-sulfonyl)-(3-methyl-butyl)-amino]-N-hydroxy-3-methyl-butyramide] | 5.95 | 7.05 |  |  |
| CC(C)CCN([C@H](Cc1ccc(OCc2ccccc2)cc1)C(=O)NO)S(=O)(=O)c1ccc2ccccc2c1 [Example 25, (R)-3-(4-Benzyloxy-phenyl)-N-hydroxy-2-[(3-methyl-butyl)-(naphthalene-2-sulfonyl)-amino]-propionamide] | 5.71 | 7.36 |  |  |
| CC(C)[C@H](C(=O)NO)N(CCCc1ccccc1)S(=O)(=O)c1ccc2ccc(N)cc2c1 [Example 38, 2-[(7-Amino-naphthalene-2-sulfonyl)-(3-phenyl-propyl)-amino]-N-hydroxy-3-methyl-butyramide] | < 6.52 | 6.72 |  |  |
| C=CCN([C@@H](C(=O)NO)C(C)C)S(=O)(=O)c1ccc2ccccc2c1 [Example 24, (R)-2-[Allyl-(naphthalene-2-sulfonyl)-amino]-N-hydroxy-3-methyl-butyramide] | 7.04 | 8.47 |  |  |
| COc1ccc(S(=O)(=O)N2CC=CC[C@@H]2C(=O)NO)cc1OC [Example 97, (R)-1-(3,4-Dimethoxy-benzenesulfonyl)-1,2,3,6-tetrahydro-pyridine-2-carboxylic acid hydroxyamide] |  | 4.99 |  |  |
| (R)-1-(2,3,4a,8a-Tetrahydro-benzo[1,4]dioxine-6-sulfonyl)-1,2,3,6-tetrahydro-pyridine-2-carboxylic acid hydroxyamide [Example 95] |  | 8.59 |  |  |
